Results taken from ChEMBL document CHEMBL5465560, “Selectivity Literature for EUbOPEN Chemogenomic Library” (2024).

Key:
[1] = target: MAP kinase-activated protein kinase 2 (Homo sapiens, UniProt P49137); assay: Selectivity interaction (KinomeScan (DiscoverX)) EUB0001079a MAPKAPK2; details: at 1 µM
[2] = target: T1, Serine/threonine-protein kinase DCLK1 (Homo sapiens) (UniProt O15075); assay: Selectivity interaction (KinomeScan (DiscoverX)) EUB0000595a DCLK1; details: at 10 µM
T1 sequence (whole entry): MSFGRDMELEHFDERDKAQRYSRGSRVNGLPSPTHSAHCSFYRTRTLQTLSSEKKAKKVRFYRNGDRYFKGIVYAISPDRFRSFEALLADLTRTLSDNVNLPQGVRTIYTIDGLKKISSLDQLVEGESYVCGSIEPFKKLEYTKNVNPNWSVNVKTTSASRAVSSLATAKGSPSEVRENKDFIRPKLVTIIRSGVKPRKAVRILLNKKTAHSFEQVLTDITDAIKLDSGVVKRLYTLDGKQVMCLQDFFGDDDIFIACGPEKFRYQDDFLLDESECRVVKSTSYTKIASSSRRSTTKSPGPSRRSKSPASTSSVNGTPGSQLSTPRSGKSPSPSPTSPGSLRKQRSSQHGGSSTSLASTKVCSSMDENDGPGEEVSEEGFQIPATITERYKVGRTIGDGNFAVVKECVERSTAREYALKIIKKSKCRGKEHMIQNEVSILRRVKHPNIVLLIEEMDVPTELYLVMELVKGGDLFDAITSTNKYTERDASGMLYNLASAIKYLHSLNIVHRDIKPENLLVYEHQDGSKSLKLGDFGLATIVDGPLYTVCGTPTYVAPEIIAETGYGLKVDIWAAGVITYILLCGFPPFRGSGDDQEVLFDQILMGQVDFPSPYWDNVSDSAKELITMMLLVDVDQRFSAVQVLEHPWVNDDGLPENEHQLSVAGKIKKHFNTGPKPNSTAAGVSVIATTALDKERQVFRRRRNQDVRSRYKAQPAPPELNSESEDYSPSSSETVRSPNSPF

[3] = target: T2, Serine/threonine-protein kinase RIO1 (Homo sapiens) (UniProt Q9BRS2); assay: Selectivity interaction (Ambit KINOMEscan and KiNATiv profiling in Jurkat cells) EUB0000090b RIOK1; assay type: cell-based; details: at 1 µM
T2 sequence (whole entry): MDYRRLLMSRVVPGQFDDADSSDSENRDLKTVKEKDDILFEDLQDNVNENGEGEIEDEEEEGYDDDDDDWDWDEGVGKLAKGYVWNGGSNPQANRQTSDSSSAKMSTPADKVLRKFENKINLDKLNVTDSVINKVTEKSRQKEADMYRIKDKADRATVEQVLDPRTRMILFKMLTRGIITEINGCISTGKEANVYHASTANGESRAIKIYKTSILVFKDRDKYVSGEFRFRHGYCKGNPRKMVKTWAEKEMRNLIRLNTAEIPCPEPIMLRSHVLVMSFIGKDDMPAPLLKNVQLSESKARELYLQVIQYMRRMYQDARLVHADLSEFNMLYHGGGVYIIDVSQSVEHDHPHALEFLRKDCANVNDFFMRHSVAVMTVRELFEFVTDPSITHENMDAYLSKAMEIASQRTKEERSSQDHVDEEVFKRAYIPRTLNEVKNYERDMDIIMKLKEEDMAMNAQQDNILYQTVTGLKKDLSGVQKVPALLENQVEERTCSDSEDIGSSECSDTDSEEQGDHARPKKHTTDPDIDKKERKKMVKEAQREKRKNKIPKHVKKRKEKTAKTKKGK

[4] = target: T3, Cyclin-G-associated kinase (Homo sapiens) (UniProt O14976); assay: Selectivity interaction (KinomeScan (DiscoverX)) EUB0000655a GAK; details: at 10 µM
T3 sequence (whole entry): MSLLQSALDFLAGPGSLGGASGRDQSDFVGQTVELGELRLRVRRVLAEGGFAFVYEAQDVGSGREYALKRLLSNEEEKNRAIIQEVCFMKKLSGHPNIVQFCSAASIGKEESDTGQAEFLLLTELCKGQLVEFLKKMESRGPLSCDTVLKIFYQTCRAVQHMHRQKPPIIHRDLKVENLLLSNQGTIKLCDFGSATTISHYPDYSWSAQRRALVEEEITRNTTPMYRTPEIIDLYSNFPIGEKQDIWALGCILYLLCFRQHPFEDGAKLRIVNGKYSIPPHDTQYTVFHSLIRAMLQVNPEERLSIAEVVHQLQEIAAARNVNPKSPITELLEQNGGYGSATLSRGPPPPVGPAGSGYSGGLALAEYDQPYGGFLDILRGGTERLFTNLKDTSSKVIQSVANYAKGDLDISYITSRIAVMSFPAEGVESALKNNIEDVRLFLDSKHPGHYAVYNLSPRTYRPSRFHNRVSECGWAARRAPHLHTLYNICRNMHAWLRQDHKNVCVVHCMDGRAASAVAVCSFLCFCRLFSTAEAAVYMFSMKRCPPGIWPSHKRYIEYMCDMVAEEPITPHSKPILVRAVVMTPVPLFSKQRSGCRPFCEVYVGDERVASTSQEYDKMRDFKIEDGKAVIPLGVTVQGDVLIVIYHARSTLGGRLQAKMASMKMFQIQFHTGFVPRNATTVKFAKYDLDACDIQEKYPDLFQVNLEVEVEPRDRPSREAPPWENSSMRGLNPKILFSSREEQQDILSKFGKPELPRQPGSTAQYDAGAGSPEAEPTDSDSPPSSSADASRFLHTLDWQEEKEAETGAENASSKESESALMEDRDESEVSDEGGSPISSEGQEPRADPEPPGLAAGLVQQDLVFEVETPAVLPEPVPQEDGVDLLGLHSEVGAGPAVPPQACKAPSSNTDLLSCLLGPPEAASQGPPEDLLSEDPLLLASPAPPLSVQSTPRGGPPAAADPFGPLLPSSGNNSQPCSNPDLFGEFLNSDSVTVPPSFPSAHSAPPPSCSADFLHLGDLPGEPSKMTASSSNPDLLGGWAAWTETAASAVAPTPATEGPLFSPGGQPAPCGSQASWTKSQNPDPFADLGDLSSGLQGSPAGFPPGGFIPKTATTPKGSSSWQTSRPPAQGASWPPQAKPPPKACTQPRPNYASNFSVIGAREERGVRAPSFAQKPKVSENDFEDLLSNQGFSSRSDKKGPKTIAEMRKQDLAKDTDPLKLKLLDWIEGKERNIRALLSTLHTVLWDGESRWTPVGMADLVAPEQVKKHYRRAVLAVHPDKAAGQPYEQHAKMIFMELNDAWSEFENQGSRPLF

Chain of MAP kinase-activated protein kinase 2 (P49137 whole entry, looked up): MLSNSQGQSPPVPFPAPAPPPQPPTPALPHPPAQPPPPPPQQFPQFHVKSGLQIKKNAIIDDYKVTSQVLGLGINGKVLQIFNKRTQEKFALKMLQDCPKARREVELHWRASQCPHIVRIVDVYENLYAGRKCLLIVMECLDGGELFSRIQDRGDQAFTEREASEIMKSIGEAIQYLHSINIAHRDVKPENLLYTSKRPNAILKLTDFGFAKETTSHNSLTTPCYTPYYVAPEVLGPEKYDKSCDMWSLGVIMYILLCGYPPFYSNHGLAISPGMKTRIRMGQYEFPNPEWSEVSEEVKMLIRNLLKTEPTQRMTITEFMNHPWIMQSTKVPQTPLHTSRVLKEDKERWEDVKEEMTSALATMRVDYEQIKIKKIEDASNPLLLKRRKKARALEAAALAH

In the case of `Nc1cnc(N2CCc3cc(S(=O)(=O)Nc4c(F)cc(Cl)cc4F)cc(N4CCCC4=O)c32)nc1` [TP-020n], the % of control [1] is reported as 100%.

With `COCC(=O)NC/C=C/c1ccc2ncnc(Nc3ccc(Oc4ccc(C)nc4)c(C)c3)c2c1` [CP-724714] the % of control [2] was 100%.

Molecule `CN(C)C/C=C/C(=O)Nc1ccc(C(=O)N2CCCC(Nc3ncc(Cl)c(-c4c[nH]c5ccccc45)n3)C2)cc1` (centres undefined) has a % of control [3] of 100%.

`CN(C)CCOc1ccc(-c2nc(-c3ccncc3)c(-c3ccc4c(c3)CC/C4=N\O)[nH]2)cc1` showed a % of control [4] of 25%.
